Assay results reported in the supplement of paper PMC9663587.

Key:
Test in all cases: GR value, 72 h; higher = faster growth (1 = untreated, <0 = killing);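 note: breast cancer and non-malignant breast epithelial lines, nine half-log doses, viable cells counted by Hoechst and LIVE/DEAD dye imaging versus time-zero plates and DMSO controls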
[1] = compound: CC(=O)c1c(C)c2cnc(Nc3ccc(N4CCN(CCOCCOCCOCCNC(=O)COc5cccc6c5C(=O)N(C5CCC(=O)NC5=O)C6=O)CC4)cn3)nc2n(C2CCCC2)c1=O [BSJ-03-123]
[2] = compound: CN1CC[C@H](c2c(O)cc(O)c3c(=O)cc(-c4ccccc4Cl)oc23)[C@H](O)C1 [Flavopiridol]
[3] = compound: CN(C)C/C=C/C(=O)Nc1ccc(C(=O)Nc2cccc(Nc3ncc(Cl)c(-c4c[nH]c5ccccc45)n3)c2)cc1 [THZ1]
[4] = compound: CN(C)C(=O)c1cc2cnc(Nc3ccc(N4CCNCC4)cn3)nc2n1C1CCCC1 [LEE011/Ribociclib]
[5] = compound: CCOc1cc2ncc(C#N)c(Nc3ccc(OCc4ccccn4)c(Cl)c3)c2cc1NC(=O)/C=C/CN(C)C [Neratinib/HKI272]
[6] = compound: CC(=O)c1c(C)c2cnc(Nc3ccc(N4CCNCC4)cn3)nc2n(C2CCCC2)c1=O

## AU565
[1]; 0.001 µM
  GR value: 0.962 GR
[1]; 0.003162 µM
  GR value: 0.875 GR
[1]; 0.01 µM
  GR value: 0.791 GR
[1]; 0.03162 µM
  GR value: 0.759 GR
[1]; 0.1 µM
  GR value: 0.833 GR
[1]; 0.3162 µM
  GR value: 0.775 GR
[1]; 1 µM
  GR value: 0.41 GR
[1]; 3.162 µM
  GR value: 0.52 GR
[1]; 10 µM
  GR value: -0.386 GR
[2]; 0.0001 µM
  GR value: 1.11 GR
[2]; 0.0003162 µM
  GR value: 1.02 GR
[2]; 0.001 µM
  GR value: 0.906 GR
[2]; 0.003162 µM
  GR value: 0.852 GR
[2]; 0.01 µM
  GR value: 1 GR
[2]; 0.03162 µM
  GR value: 0.858 GR
[2]; 0.1 µM
  GR value: 0.472 GR
[2]; 0.3162 µM
  GR value: -0.198 GR
[2]; 1 µM
  GR value: -0.69 GR
[3]; 0.0001 µM
  GR value: 0.903 GR
[3]; 0.0003162 µM
  GR value: 1.02 GR
[3]; 0.001 µM
  GR value: 0.972 GR
[3]; 0.003162 µM
  GR value: 0.84 GR
[3]; 0.01 µM
  GR value: 0.797 GR
[3]; 0.03162 µM
  GR value: 0.225 GR
[3]; 0.1 µM
  GR value: -0.325 GR
[3]; 0.3162 µM
  GR value: -0.547 GR
[3]; 1 µM
  GR value: -0.653 GR
[4]; 0.001 µM
  GR value: 0.82 GR
[4]; 0.003162 µM
  GR value: 0.739 GR
[4]; 0.01 µM
  GR value: 0.645 GR
[4]; 0.03162 µM
  GR value: 0.742 GR
[4]; 0.1 µM
  GR value: 0.569 GR
[4]; 0.3162 µM
  GR value: 0.546 GR
[4]; 1 µM
  GR value: 0.487 GR
[4]; 3.162 µM
  GR value: 0.425 GR
[4]; 10 µM
  GR value: 0.227 GR
[5]; 0.0003162 µM
  GR value: 0.834 GR
[5]; 0.001 µM
  GR value: 0.534 GR
[5]; 0.003162 µM
  GR value: 0.172 GR
[5]; 0.01 µM
  GR value: -0.145 GR
[5]; 0.03162 µM
  GR value: -0.318 GR
[5]; 0.1 µM
  GR value: -0.388 GR
[5]; 0.3162 µM
  GR value: -0.506 GR
[5]; 1 µM
  GR value: -0.585 GR
[5]; 3.162 µM
  GR value: -0.614 GR
[6]; 0.0003162 µM
  GR value: 1.04 GR
[6]; 0.001 µM
  GR value: 1.05 GR
[6]; 0.003162 µM
  GR value: 1.01 GR
[6]; 0.01 µM
  GR value: 0.919 GR
[6]; 0.03162 µM
  GR value: 0.73 GR
[6]; 0.1 µM
  GR value: 0.579 GR
[6]; 0.3162 µM
  GR value: 0.39 GR
[6]; 1 µM
  GR value: 0.301 GR
[6]; 3.162 µM
  GR value: 0.154 GR
